# According to patent publication US20130079271A1, “REVERSED BIARYL SPIROAMINOOXAZOLINE ANALOGUES AS ALPHA2C ADRENERGIC RECEPTOR MODULATORS” (priority 2009, published 2013):
# Biological target: T1, α2C receptor (Homo sapiens, UniProt P18825)
# T1 sequence (P18825 1-462): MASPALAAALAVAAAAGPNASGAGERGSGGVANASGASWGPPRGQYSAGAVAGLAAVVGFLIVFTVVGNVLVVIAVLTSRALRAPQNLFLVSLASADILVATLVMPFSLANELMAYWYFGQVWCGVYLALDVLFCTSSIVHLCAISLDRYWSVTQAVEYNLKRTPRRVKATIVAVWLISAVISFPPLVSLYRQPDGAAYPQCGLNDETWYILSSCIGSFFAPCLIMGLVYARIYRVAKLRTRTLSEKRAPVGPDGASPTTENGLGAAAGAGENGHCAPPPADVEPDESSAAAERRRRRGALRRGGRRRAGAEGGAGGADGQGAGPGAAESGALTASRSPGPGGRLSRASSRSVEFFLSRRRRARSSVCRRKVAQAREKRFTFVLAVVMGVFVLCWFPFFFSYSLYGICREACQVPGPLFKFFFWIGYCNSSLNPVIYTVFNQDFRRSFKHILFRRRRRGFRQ
# Experiment: Efficacy agonist activity (Emax, GTPγS assay) at α2C
# Format: biochemical
# Details: by definition: efficacy at α2C ≧30% Emax (GTPγS assay); functionally selective if also efficacy at α2A ≦35% Emax
# Protocol: Efficacy agonist activity values (Emax, GTPγS assay) for α2A and α2C were determined by following the general procedure detailed by Umland et. al (“Receptor reserve analysis of the human α2c-adrenoceptor using [^35S]GTPγS and cAMP functional assays” European Journal of Pharmacology 2001, 411, 211-221). For the purposes of the present invention, a compound is defined to be a specific or at least functionally selective agonist of the α2C receptor subtype if the compound's efficacy at the α2C receptor is ≧30% Emax (GTPγS assay) and its efficacy at the α2A receptor is ≦35% Emax (GTPγS assay). Additionally, for the purposes of this invention, a compound is defined to be an antagonist of the α2C receptor subtype if the compound's efficacy at the α2C receptor is <30% Emax (GTPγS assay) and the Ki at the α2C receptor subtype was <500 nM, preferentially <200 nM, and most preferentially <20 nM.
row,Compound,evaluated to be active or functionally selective agonists of the α2C receptor subtype
1,NC1=NC[C@]2(CCc3c(cccc3-c3cncnc3)C2)O1 [1f],active or functionally selective agonists
2,CN1OC2(CCc3cccc(-c4cncnc4)c3C2)N=C1N (racemic) [(±)-5B],active or functionally selective agonists
3,CN1OC2(CCc3ccc(-c4cncnc4)cc3C2)N=C1N (racemic) [(±)-5F],active or functionally selective agonists
4,NC1=NC[C@]2(CCc3c(cccc3-c3cc(F)cc(F)c3)C2)O1 [compound 112],active or functionally selective agonists
5,NC1=NCC2(CCc3c(cccc3-c3cncc(F)c3)C2)O1 (racemic) [(±)-108],active or functionally selective agonists
6,NC1=NC[C@]2(CCc3c(cccc3-c3cncc(F)c3)C2)O1 (racemic) [compound 113],active or functionally selective agonists
7,CN1OC2(CCc3c(cccc3-c3cncnc3)C2)N=C1N (racemic) [(±)-5],active or functionally selective agonists
8,NC1=NCC2(CCc3c(cccc3-c3cc(F)cc(F)c3)C2)O1 (racemic) [(±)-104],active or functionally selective agonists
9,NC1=NCC2(CCc3c(cccc3-c3cncnc3)C2)O1 (racemic) [(±)-1],active or functionally selective agonists
